Read-outs that look alike come from different tables or passages of the source. Residues, ends and D or L forms follow the SMILES beside them. *: point of attachment. Cbz = O=C(OCc1ccccc1)*; CHN2 = [N-]=[N+]=C*
Assays:
[1] = target: T1, vWF-cleaving protease (Homo sapiens, UniProt Q76LX8); assay: Influence of metal ions on the activity of the vWF-cleaving protease; type: biochemical; details: 95 μl protease preincubated 15 minutes at 37° C. with 5 μl of 0.2 M salt solution
T1 construct: Purification of Protease from Plasma; from tissue; host or cells: plasma (fibrinogen removed before chromatography)
T1 sequence (Q76LX8 75-1427): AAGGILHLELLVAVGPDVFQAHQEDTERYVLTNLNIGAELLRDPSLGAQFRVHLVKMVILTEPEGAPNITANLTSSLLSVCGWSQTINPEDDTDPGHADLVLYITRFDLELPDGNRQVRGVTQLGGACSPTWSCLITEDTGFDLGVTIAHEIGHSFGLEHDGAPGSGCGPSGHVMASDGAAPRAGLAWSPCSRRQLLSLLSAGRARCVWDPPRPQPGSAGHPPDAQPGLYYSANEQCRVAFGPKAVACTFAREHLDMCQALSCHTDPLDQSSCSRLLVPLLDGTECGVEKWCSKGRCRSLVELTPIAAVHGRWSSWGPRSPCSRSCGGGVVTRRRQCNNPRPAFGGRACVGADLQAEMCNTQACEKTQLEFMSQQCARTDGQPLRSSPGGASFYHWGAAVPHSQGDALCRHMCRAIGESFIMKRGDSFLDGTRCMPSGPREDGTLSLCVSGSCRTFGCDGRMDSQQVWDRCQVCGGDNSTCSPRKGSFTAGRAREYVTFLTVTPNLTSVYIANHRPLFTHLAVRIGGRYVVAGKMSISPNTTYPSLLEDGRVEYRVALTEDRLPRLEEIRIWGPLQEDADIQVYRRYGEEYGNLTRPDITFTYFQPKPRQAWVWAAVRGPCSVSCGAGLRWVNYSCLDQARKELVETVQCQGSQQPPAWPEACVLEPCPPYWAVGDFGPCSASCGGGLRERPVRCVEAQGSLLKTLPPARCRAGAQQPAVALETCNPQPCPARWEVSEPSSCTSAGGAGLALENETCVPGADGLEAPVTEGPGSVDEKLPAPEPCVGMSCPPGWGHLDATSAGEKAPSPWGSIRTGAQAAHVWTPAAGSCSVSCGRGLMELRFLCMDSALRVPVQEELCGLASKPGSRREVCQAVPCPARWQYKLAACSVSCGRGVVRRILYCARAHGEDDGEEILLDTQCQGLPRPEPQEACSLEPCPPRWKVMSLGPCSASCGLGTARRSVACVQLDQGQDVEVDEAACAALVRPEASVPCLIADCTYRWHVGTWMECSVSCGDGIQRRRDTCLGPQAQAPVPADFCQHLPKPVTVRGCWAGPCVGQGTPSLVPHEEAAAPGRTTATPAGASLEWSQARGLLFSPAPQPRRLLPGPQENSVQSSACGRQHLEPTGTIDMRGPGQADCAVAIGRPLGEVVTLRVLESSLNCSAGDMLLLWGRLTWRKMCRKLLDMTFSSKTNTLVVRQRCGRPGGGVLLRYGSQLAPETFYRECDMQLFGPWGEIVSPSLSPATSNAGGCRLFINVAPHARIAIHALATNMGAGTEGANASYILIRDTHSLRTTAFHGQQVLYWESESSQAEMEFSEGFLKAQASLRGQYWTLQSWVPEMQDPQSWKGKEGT

[2] = target: T1, vWF-cleaving protease; assay: Effect of protease inhibitors on vWF degradation; type: biochemical; details: for effect of peptidyl-diazomethylketone inhibitors on proteolytic degradation of vWF: final concentration 0.1 mM during preincubation with barium-activated protease
[3] = target: T2, vWF protease (Homo sapiens, UniProt Q76LX8); assay: Degradation of vWF by the vWF protease in the presence of aprotinin or PPACK; type: biochemical; details: for degradation of recombinant vWF by the protease in the presence of inhibitor: inhibitor concentration at which no protease activity detected with a chromogenic substrate of plasmin
T2 construct: the preparation prepared according to the invention with the vWF-specific protease; from tissue
T2 sequence (Q76LX8 75-1427): T1 sequence (Q76LX8 75-1427)
Protocol: The concentration of aprotinin and PPACK was chosen such that no protease activity could be detected with a chromogenic substrate of plasmin.
In this experiment, the degradation products of the recombinant vWF with the protease according to the invention were the satellite bands developed and the central bands. Actually all bands were very similar to plasmatic vWF (FIG. 14 (panel C)).
(§1) Analysis of the r-vWF and its proteolytic degradation products was performed on 1% and 2% agarose gels, also according to the method of Ruggeri et al. (Blood 57 (1981), 1140-1143). The vWF multimers were made visible by immunoenzymatic staining according to Aihara et al. (Thromb. Haemostas. 55 (1986), 263-267). A rabbit-anti-von Willebrand factor-antiserum (from Dakopatts, Glostrup, Denmark) was used as the primary antibody, and an alkaline phosphatase-conjugated, affinity-purified goat-anti-rabbit IgG H+L-antibody (from Axell Accurate Chemical and Scientific Corp, Westburg, N.Y.) served as the secondary antibody. Staining of the protein bands was effected by means of the nitroblue tetrazolium/bromochloro-indolyl-phosphate substrate system.

[4] = target: T3, plasmin (Homo sapiens, UniProt P00747); assay: Degradation of vWF with plasmin with and without inhibitors; type: biochemical; details: for effect of inhibitor on plasmin-induced reduction of high multimers of cryoprecipitate: incubation for more than 8 hours; for effect of inhibitor on plasmin degradation of r-vWF: plasmin reduced to 1:10, about 20 hours
T3 construct: plasmin being diluted to 0.2 U/ml in 20 mM TBS buffer, pH 8.3
T3 sequence (P00747 581-810): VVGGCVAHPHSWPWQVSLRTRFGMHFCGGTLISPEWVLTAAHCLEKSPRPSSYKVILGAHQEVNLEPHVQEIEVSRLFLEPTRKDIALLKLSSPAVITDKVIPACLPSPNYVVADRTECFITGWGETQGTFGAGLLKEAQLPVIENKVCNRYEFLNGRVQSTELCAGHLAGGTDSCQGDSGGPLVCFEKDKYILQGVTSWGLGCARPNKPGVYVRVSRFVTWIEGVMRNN
T3 sequence (P00747 97-580): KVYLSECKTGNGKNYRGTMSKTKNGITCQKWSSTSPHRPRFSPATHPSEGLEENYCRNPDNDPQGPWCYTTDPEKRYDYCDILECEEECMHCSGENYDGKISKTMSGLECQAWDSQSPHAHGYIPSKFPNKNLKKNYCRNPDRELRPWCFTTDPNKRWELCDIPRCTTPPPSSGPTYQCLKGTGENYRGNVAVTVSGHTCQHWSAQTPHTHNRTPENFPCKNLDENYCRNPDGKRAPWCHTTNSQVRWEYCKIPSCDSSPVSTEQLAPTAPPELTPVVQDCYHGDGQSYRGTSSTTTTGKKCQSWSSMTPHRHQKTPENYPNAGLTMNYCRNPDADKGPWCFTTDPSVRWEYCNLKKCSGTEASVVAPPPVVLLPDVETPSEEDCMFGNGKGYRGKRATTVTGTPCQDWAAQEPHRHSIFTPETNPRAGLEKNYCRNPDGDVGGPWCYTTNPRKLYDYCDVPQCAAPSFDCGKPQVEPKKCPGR
Protocol: as §1

[5] = Incubation of r-vWF in vWF-deficient human plasma; type: in vitro ADME
Protocol: Further tests investigated whether a proteolytic degradation of r-vWF took place during incubation with human plasma (cf. FIG. 18). For this, the r-vWF preparation was mixed with equal volumes of a vWF-deficient plasma (cf. FIG. 18 (panel A)) and incubated for 48 hours, samples being taken at various times. No change of the r-vWF over time could be detected.
as §1

## [Cl-].[Cl-].[Mg+2] [Mg^2+, MgCl2]
[1]
  activation of the protease by metal ions: slight activation

## CC(C)C[C@H](NC(=O)OCc1ccccc1)C(=O)N[C@@H](CC(C)C)C(=O)N[C@@H](Cc1ccc(O)cc1)C(=O)C=[N+]=[N-] [Z-Leu-Leu-Tyr-CHN2] (Cbz-Leu-Leu-Tyr-CHN2)
[2]
  effect of peptidyl-diazomethylketone inhibitors on proteolytic degradation of vWF: active in the presence

## O=C(O)CN(CCN(CC(=O)O)CC(=O)O)CC(=O)O [EDTA]
[2]
  inhibition of the barium-preincubated protease (vWF degradation by SDS agarose electrophoresis and immunoblotting): inhibit the barium-preincubated protease completely

## [Ba+2].[Cl-].[Cl-] [Ba^2+, BaCl2]
[1]
  activation of the protease by metal ions: substantial activation

## O=S(=O)([O-])[O-].[Cu+2] [Cu^2+, CuSO4]
[1]
  activation of the protease by metal ions: no activation

## [Cl][Ni][Cl] [Ni^2+, NiCl2]
[1]
  activation of the protease by metal ions: no activation

## NC(=O)CI [IAA, iodoncetamide]
[2]
  inhibition of the barium-preincubated protease (vWF degradation by SDS agarose electrophoresis and immunoblotting): did not result in protease inhibition

## CCN1C(=O)C=CC1=O [NEM, N-ethylmaleimide]
[2]
  inhibition of the barium-preincubated protease (vWF degradation by SDS agarose electrophoresis and immunoblotting): did not result in protease inhibition
  protease inhibition with inhibitor also incorporated into the dialysis solution: partial protease inhibition

## CC(C)[C@H](NC(=O)OCc1ccccc1)C(=O)N[C@H](C(=O)N[C@@H](Cc1ccc(O)cc1)C(=O)C=[N+]=[N-])C(C)C [Z-Val-Val-Tyr-CHN2] (Cbz-Val-Val-Tyr-CHN2)
[2]
  effect of peptidyl-diazomethylketone inhibitors on proteolytic degradation of vWF: impaired the proteolytic degradation of vWF

## CC(=O)[O-].CC(=O)[O-].[Cd+2] [Cd^2+, Cd(CH3 COO)2]
[1]
  activation of the protease by metal ions: no activation

## Cc1ccc(S(=O)(=O)N[C@@H](Cc2ccccc2)C(=O)CCl)cc1 [TPCK, N-α-p-tosyl-L-phenylalanine-chloromethylketone]
[2]; inhibitor 1 mM, 15 minutes preincubation at 37° C.
  inhibition of the barium-preincubated protease (vWF degradation): no inhibition

## O=S(=O)([O-])[O-].[Co+2] [Co^2+, CoSO4]
[1]
  activation of the protease by metal ions: no activation

## Cc1ccc(S(=O)(=O)N[C@@H](CCCCN)C(=O)CCl)cc1 [TLCK, N-α-p-tosyl-L-lysine-chloromethylketone]
[2]
  inhibition of the barium-preincubated protease (vWF degradation): no inhibition

## [Ca+2].[Cl-].[Cl-] [Ca^2+, CaCl2]
[1]
  activation of the protease by metal ions: substantial activation

## O=S(=O)(F)Cc1ccccc1 [PMSF, phenylmethylsulfonyl fluoride]
[2]
  inhibition of the barium-preincubated protease (vWF degradation): no inhibition

## N=C(N)NCCC[C@H](NC(=O)[C@@H]1CCCN1C(=O)[C@H](N)Cc1ccccc1)C(=O)CCl [PPACK, Diphenylalanylprolyl arginine-chloromethylketone]
[3]
  degradation of cryoprecipitate vWF by vWF protease on addition of inhibitor: could not be prevented
  degradation of recombinant vWF by the protease in the presence of inhibitor: degraded identically
[4]
  effect of inhibitor on plasmin-induced reduction of high multimers of cryoprecipitate: prevented
  effect of inhibitor on plasmin degradation of r-vWF: prevented

## [Cl-].[Cl-].[Zn+2] [Zn^2+, ZnCl2]
[1]
  activation of the protease by metal ions: no activation

## aprotinin
[3]
  degradation of cryoprecipitate vWF by vWF protease on addition of inhibitor: could not be prevented
  degradation of recombinant vWF by the protease in the presence of inhibitor: degraded identically
[4]
  effect of inhibitor on plasmin-induced reduction of high multimers of cryoprecipitate: prevented
  effect of inhibitor on plasmin degradation of r-vWF: prevented
[2]
  inhibition of the barium-preincubated protease (vWF degradation): no inhibition

## [Cl-].[Cl-].[Sr+2] [Sr^2+, SrCl2]
[1]
  activation of the protease by metal ions: substantial activation

## [Cl][Mn][Cl] [Mn^2+, MnCl2]
[1]
  activation of the protease by metal ions: no activation

## O=C(O)CC(O)(CC(=O)O)C(=O)O [citrate, Na3 -citrate]
[2]
  inhibition of the barium-preincubated protease (vWF degradation by SDS agarose electrophoresis and immunoblotting): partial inhibition

## O=C(O)CN(CCOCCOCCN(CC(=O)O)CC(=O)O)CC(=O)O [ESTA, EGTA]
[2]; inhibitor final concentration 10 mM, 15 minutes preincubation at 37° C.
  inhibition of the barium-preincubated protease (vWF degradation by SDS agarose electrophoresis and immunoblotting): inhibit the barium-preincubated protease completely

## CC(=O)N[C@@H](CC(C)C)C(=O)N[C@@H](CC(C)C)C(=O)N[C@H](C=O)CCCNC(=N)N [leupeptin]
[2]
  inhibition of the barium-preincubated protease (vWF degradation): no inhibition

## [N-]=[N+]=CC(=O)[C@H](Cc1ccccc1)NC(=O)[C@H](Cc1ccccc1)NC(=O)OCc1ccccc1 [Z-Phe-Phe-CH2, Z-Phe-Phe-CHN2] (Cbz-Phe-Phe-CHN2)
[2]
  effect of peptidyl-diazomethylketone inhibitors on proteolytic degradation of vWF: impaired the proteolytic degradation of vWF

## r-vWF: Recombinant vWF factor produced according to FEBS-Letters 375, 259-262 (1995), singlet structure
[5]; equal length of time at 37° C. in buffer media
  change of r-vWF structure in control preparation: no change of structure
[5]; mixed with equal volume of vWF-deficient plasma, incubated for 48 hours
  change of r-vWF over time: No change
